Drawing on US6737425B1, “N,N-substituted cyclic amine derivatives” (Eisai Co., Ltd., priority 1998, dated 2004), this text covers IC50 for 38 molecules.

Each structure is given as a SMILES string. Counter-ions that a name gives are not always drawn.

One experiment has as its system voltage-dependent calcium channels (cerebral cortex synaptosome). The experiment in a line: Measurement of voltage-dependent calcium channel activity by the use of a fluorescent pigment (fura 2). The class given is cell-based. Particulars: rat cerebral cortex synaptosome, fura 2, KCl stimulation, compound incubated 10 minutes. Here is the method: Measurement of Voltage-dependent Calcium Channel Activity by the use of a Fluorescent Pigment (fura 2)
Cerebral cortexes were removed from cut rat brains and disrupted roughly with scissors. These were introduced into a homogenizer, homogenized in 0.3 M saccharose and centrifuged at 4° C. (1,500 g×10 min). The resulting supernatant was further centrifuged at 4° C. (10,000 g×20 min). The resulting precipitates were suspended in 0.3 M saccharose. The suspension was layered on 0.8 M saccharose and centrifuged (10,000 g×30 min.).
4 μM fura 2/AM (Dojin Ltd.) was suspended in solution A to prepare a loading solution. To the synaptosome solution prepared in the method described above was added an equal volume of the loading solution, and the mixture was incubated for 40 minutes at room temperature.
As comparative and control compound, verapamil hydrochloride was used.
For the molecule `CC(C)C(C#N)(CCCN1CCN(CCOc2ccc(-c3cccnc3)cc2)CC1)c1ccccc1` (centres unmarked) [Example 106, 1-[(4-Cyano-5-methyl-4-phenyl)hexyl]-4-{2-[4-(3-pyridyl)phenoxy]ethyl}piperazine], the half-inhibitory concentration (IC50) came to 7 µM. Take `CC(C)C(C#N)(CCCN1CCN(CCOc2cccc3cnccc23)CC1)c1ccccc1` (centres unmarked) [Example 96, 1-[(4-Cyano-5-methyl-4-phenyl)hexyl]-4-[2-(5-isoquinolyloxy)ethyl]piperazine]: the 50% inhibitory concentration (IC50) was 5.4 µM. In the case of `CC(C)C(C#N)(CCCN1CCN(CCOc2ccc3ncccc3c2)CC1)c1ccccc1` (centres unmarked) [Example 95, 1-[(4-Cyano-5-methyl-4-phenyl)hexyl]-4-[2-(6-quinolyloxy)ethyl]piperazine], the IC50 was 11 µM. Same read-out and setting: the value for `CC(C)C(C#N)(CCCN1CCN(CCOc2cccc(F)c2)CC1)c1ccc(C#N)s1` (centres unmarked) [Example 115, 1-[4-Cyano-5-methyl-4-(2-cyano-5-thienyl)hexyl]-4-[2-(3-fluorophenoxy)ethyl]piperazine] was 5.8 µM. Still for that read-out and setting: next, `CC(C)C(C#N)(CCCCN1CCN(CCOc2ccc(F)cc2)CC1)c1ccccc1` (centres unmarked) [Example 34]: 3.8 µM; `CC(C)C(C#N)(CCCN1CCN(CCOc2ccc(F)cc2)CC1)c1ccc([N+](=O)[O-])cc1` (centres unmarked) [Example 16, 1-[4-Cyano-5-methyl-4-(4-nitrophenyl)hexyl]-4-[2-(4-fluorophenoxy)ethyl]piperazine]: 4.8 µM; `CC(C)C(C#N)(CCCN1CCN(CCOc2ccc(F)cc2)CC1)c1ccc(N)cc1` (centres unmarked) [Example 17, 1-[4-Cyano-5-methyl-4-(4-aminophenyl)hexyl]-4-[2-(4-fluorophenoxy)ethyl]piperazine]: greater than 16 µM. For `CC(C)C(C#N)(CCCN1CCN(CCOc2cccc(-c3ccccc3)c2)CC1)c1ccccc1` (centres unmarked) [Example 120, 1-[(4-Cyano-5-methyl-4-phenyl)hexyl]-4-[2-(3-phenylphenoxy)ethyl]piperazine], the IC50 turned out to be 4.1 µM. As for `CC(C)C(C#N)(CCCN1CCN(CCCCOc2ccccc2)CC1)c1ccccc1` (centres unmarked) [Example 6, 1-[(4-Cyano-5-methyl-4-phenyl)hexyl]-4-(4-phenoxybutyl)piperazine], the IC50 worked out at 2.7 µM. The same measure, in the same setting: the value for `CCOC(=O)COc1cc(F)ccc1OCCN1CCN(CCCC(C#N)(c2ccccc2)C(C)C)CC1` (centres unmarked) [Example 86, 1-[(4-Cyano-5-methyl-4-phenyl)hexyl]-4-[2 (2-ethoxycarbonylmethoxy-4-fluorophenoxy)ethyl]piperazine] was 4.3 µM; that for `N#CC(CCCN1CCN(CCOc2ccc(F)cc2)CC1)(c1ccccc1)C1CCCCC1` (centres unmarked) [Example 38] was 4 µM; that for `COC(=O)c1ccc(C(C#N)(CCCN2CCN(CCOc3ccc(F)cc3)CC2)C(C)C)cc1` (centres unmarked) [Example 12, 1-[4-Cyano-5-methyl-4-(4-carbomethoxyphenyl)hexyl]-4-[2-(4-fluorophenoxy)ethyl]piperazine] was 8.1 µM. On the same count and under the same terms, next, `CC(C)C(C#N)(CCCN1CCN(CCOc2cccc(-c3ccsc3)c2)CC1)c1ccccc1` (centres unmarked) [Example 117, 1-[(4-Cyano-5-methyl-4-phenyl)hexyl]-4-{2-[3-(3-thienyl)phenoxy]ethyl}piperazine]: 3.2 µM; `CC(C)C(C#N)(CCCN1CCN(CC(=O)Nc2ccc(F)cc2)CC1)c1ccccc1` (centres unmarked) [Example 65, 1-[(4-Cyano-5-methyl-4-phenyl)hexyl]-4-[N-(4-fluorophenyl)carbamoylmethyl]piperazine]: greater than 16 µM. For `CC(C)C(C#N)(CCCN1CCN(CCC(O)c2ccc(F)cc2)CC1)c1ccccc1` (centres unmarked) [Example 60, 1-[(4-Cyano-5-methyl-4-phenyl)hexyl]-4-[-hydroxy-3-(4-flurophenyl)propyl]piperazine], the 50% inhibitory concentration (IC50) came to 10 µM. Same read-out and setting: next, `CC(C)C(C#N)(CCCN1CCN(CCOc2ccc(F)cc2)CC1)c1ccc(C#N)s1` (centres unmarked) [Example 114, 1-[4-Cyano-5-methyl-4-(2-cyano-5-thienyl)hexyl]-4-[2-(4-fluorophenoxy)ethyl]piperazine]: 6.8 µM; `CC(C)C(C#N)(CCCN1CCN(CCN(c2ccccc2)C2CCCCC2)CC1)c1ccccc1` (centres unmarked) [Example 90, 1-[(4-Cyano-5-methyl-4-phenyl)hexyl]-4-[2-(N-cyclohexylanilino)ethyl]piperazine]: 2.6 µM. The same measure, in the same setting: next, `CC(C)C(C#N)(CCCN1CCN(CCOc2ccccc2Br)CC1)c1ccccc1` (centres unmarked) [Example 110, 1-[(4-Cyano-5-methyl-4-phenyl)hexyl]-4-[2-(2-bromophenoxy)ethyl]piperazine]: 3.5 µM; `CC(C)C(C#N)(CCCN1CCN(CCOc2ccccn2)CC1)c1ccccc1` (centres unmarked) [Example 71, 1-[(4-Cyano-5-methyl-4-phenyl)hexyl]-4-[2-(2-pyridyloxy)ethyl]piperazine]: greater than 16 µM. Same read-out and setting: next, `CC(C)C(C#N)(CCCN1CCN(CCOc2ccc(N(C)C)cc2)CC1)c1ccccc1` (centres unmarked) [Example 43, 1-[(4-Cyano-5-methyl-4-phenyl)hexyl]-4-[2-(4-dimethylaminophenoxy)ethyl]piperazine]: 13 µM. In the case of `CC(C)C(C#N)(CCCN1CCN(CCOc2ccc(F)cc2OCCO)CC1)c1ccccc1` (centres unmarked) [Example 87, 1-[(4-Cyano-5-methyl-4-phenyl)hexyl]-4-[2-(2-hydroxyethoxy-4-fluorophenoxy)ethyl]piperazine], the 50% inhibitory concentration (IC50) was greater than 16 µM.

For `CC(C)C(C#N)(CCCN1CCN(CCOc2cccc(Br)c2)CC1)c1ccccc1` (centres unmarked) [Example 109, 1-[(4-Cyano-5-methyl-4-phenyl)hexyl]-4-[2-(3-bromophenoxy)ethyl]piperazine], the half-maximal inhibitory concentration (IC50) was 3.3 µM.

Regarding `CC(C)C(C#N)(CCCN1CCN(CCOc2ccc(F)cc2)CC1)c1ccc(Cl)c(Cl)c1` (centres unmarked) [Example 37, 1-{[4-Cyano-5-methyl-4-(3,4-dichlorophenyl)hexyl]}-4-[2-(4-fluorophenoxy)ethyl]piperazine], the 50% inhibitory concentration (IC50) was determined as 2.7 µM. On the same count and under the same terms, the value for `CCC(C#N)(CCCN1CCN(CCOc2ccc(F)cc2)CC1)c1ccccc1` (centres unmarked) [Example 28, 1-[(4-Cyano-4-phenyl)hexyl]-4-[2-(4-fluorophenoxy)ethyl]piperazine] was 7.2 µM; that for `CC(C)C(C#N)(CCCN1CCN(CCOc2cccc(/C=C/C#N)c2)CC1)c1ccccc1` (centres unmarked) [Example 121, 1-[(4-Cyano-5-methyl-4-phenyl)hexyl]-4-{2-[3-(2-cyanovinyl)phenoxy]ethyl}piperazine] was 6.8 µM; that for `CC(C)C(C#N)(CCCN1CCN(CCC(=O)Nc2ccc(F)cc2)CC1)c1ccccc1` (centres unmarked) [Example 63, 1-[(4-Cyano-5-methyl-4-phenyl)hexyl]-4-[2-(4-fluorophenylaminocarbonyl)ethyl]piperazine] was 7.4 µM.

`CC(C)C(C#N)(CCN1CCN(CCCOc2ccc(F)cc2)CC1)c1ccccc1` (centres unmarked) [Example 5, 1-[(3-Cyano-4-methyl-3-phenyl)pentyl]-4-[3-(4-fluorophenoxy)propyl]piperazine]: the IC50 is 7.7 µM. The same measure, in the same setting: the value for `CC(C)(O)C(C#N)(CCCN1CCN(CCOc2ccc(F)cc2)CC1)c1ccccc1` (centres unmarked) [Example 81, 1-[(4-Cyano-5-hydroxy-5-methyl-4-phenyl)hexyl]-4-[2-(4-fluorophenoxyl)ethyl]piperazine] was greater than 16 µM; that for `CC(C)C(C#N)(CCCN1CCN(CC(O)COc2ccc(F)cc2)CC1)c1ccccc1` (centres unmarked) [Example 62, 1-[(4-Cyano-5-methyl-4-phenyl)hexyl]-4-[2-hydroxy-3-(4-fluorophenoxy)propyl]piperazine] was 8.8 µM; that for `CC(C)C(C#N)(CCCN1CCN(CCOc2ncnc3ccccc23)CC1)c1ccccc1` (centres unmarked) [Example 105, 1-[(4-Cyano-5-methyl-4-phenyl)hexyl]-4-[2-(4-quinazolinyloxy)ethyl]piperazine] was greater than 16 µM.

On to `CC(C)C(C#N)(CCCN1CCN(C(=O)COc2ccc(F)cc2)CC1)c1ccccc1` (centres unmarked) [Example 61, 1-[(4-Cyano-5-methyl-4-phenyl)hexyl]-4-[2-(4-fluorophenoxy)acetyl]piperazine], for which the half-maximal inhibitory concentration (IC50) worked out at 11 µM. In the case of `CC(C)C(C#N)(CCCN1CCN(CCOc2cccc3ncccc23)CC1)c1ccccc1` (centres unmarked) [Example 101, 1-[(4-Cyano-5-methyl-4-phenyl)hexyl]-4-[2-(5-quinolyloxy)ethyl]piperazine], the IC50 is 9.2 µM. On the same count and under the same terms, next, `CC(C)c1ccccc1N(C)CCN1CCN(CCCC(C#N)(c2ccccc2)C(C)C)CC1` (centres unmarked) [Example 93, 1-[(4-Cyano-5-methyl-4-phenyl)hexyl]-4-{2-[N-methyl(2-Isopropylanilino)ethyl]}piperazine]: 2.4 µM.

Regarding `CC(C)C(C#N)(CCCN1CCN(CCOCc2ccccc2)CC1)c1ccccc1` (centres unmarked) [Example 48, 1-[(4-Cyano-5-methyl-4-phenyl)hexyl]-4-[2-(benzyloxy)ethyl]piperazine], the IC50 was found to be 8.4 µM. Same read-out and setting: next, `CC(C)C(C#N)(CCCN1CCN(CCOc2ccc(F)cc2)CC1)c1ccc(N(C)C)cc1` (centres unmarked) [Example 19, 1-[4-Cyano-5-methyl-4-(4-dimethylaminophenyl)hexyl]-4-[2-(4-fluorophenoxy)ethyl]piperazine]: 6 µM. Regarding `CC(C)C(C#N)(CCCN1CCN(CCOc2cccc(F)c2)CC1)c1ccccc1` (centres unmarked) [Example 32, 1-[(4-Cyano-5-methyl-4-phenyl)hexyl]-4-[2-(3-fluorophenoxy)ethyl]piperazine], the half-inhibitory concentration (IC50) was 6.2 µM.

Turning to `CSc1ccc(OCCN2CCN(CCCC(C#N)(c3ccccc3)C(C)C)CC2)cc1` (centres unmarked) [Example 45, 1-[(4-Cyano-5-methyl-4-phenyl)hexyl]-4-[2-(4-methylthiophenoxy)ethyl]piperazine], the IC50 came out at 4.6 µM.

Staying with this experiment, now noted: rat cerebral cortex synaptosome, fura 2, KCl stimulation, compound incubated 10 minutes; Hydrochloride.
With `CC(C)C(C#N)(CCN1CCN(CCOc2ccc(F)cc2)CC1)c1ccccc1` (single isomer, unassigned; (-)) [Example 77, (−)-1-[(3-Cyano-4-methyl-3-phenyl)pentyl]-4-[2-(4-fluorophenoxyl)ethyl]piperazine Hydrochloride], the half-maximal inhibitory concentration (IC50) turned out to be 7.5 µM.

Usually IC50 stands for the concentration that inhibits the measured activity by half.
